{
  "source": "PubChem BioAssay (NCI)",
  "test_in_all_cases": "inhibition of tumour cell growth, NCI panel, 384-well format",
  "key": {"OVCAR-5 ovarian": {"tested_on": "OVCAR-5 ovarian"}, "LOX IMVI melanoma": {"tested_on": "LOX IMVI melanoma"}, "UACC-257 melanoma": {"tested_on": "UACC-257 melanoma"}, "NCI-H23 lung": {"tested_on": "NCI-H23 lung"}, "NCI-H322M lung": {"tested_on": "NCI-H322M lung"}, "K-562 leukemia": {"tested_on": "K-562 leukemia"}, "MOLT-4 leukemia": {"tested_on": "MOLT-4 leukemia"}, "SK-MEL-5 melanoma": {"tested_on": "SK-MEL-5 melanoma"}, "SK-MEL-2 melanoma": {"tested_on": "SK-MEL-2 melanoma"}, "OVCAR-8 ovarian": {"tested_on": "OVCAR-8 ovarian"}, "SF-268 CNS": {"tested_on": "SF-268 CNS"}, "NCI-H522 lung": {"tested_on": "NCI-H522 lung"}, "PC-3 prostate": {"tested_on": "PC-3 prostate"}, "SK-OV-3 ovarian": {"tested_on": "SK-OV-3 ovarian"}, "T-47D breast": {"tested_on": "T-47D breast"}, "A498 renal": {"tested_on": "A498 renal"}, "HCC-2998 colon": {"tested_on": "HCC-2998 colon"}, "SN12C renal": {"tested_on": "SN12C renal"}, "OVCAR-3 ovarian": {"tested_on": "OVCAR-3 ovarian"}, "UO-31 renal": {"tested_on": "UO-31 renal"}, "786-0 renal": {"tested_on": "786-0 renal"}, "OVCAR-4 ovarian": {"tested_on": "OVCAR-4 ovarian"}, "SK-MEL-28 melanoma": {"tested_on": "SK-MEL-28 melanoma"}, "NCI/ADR-RES ovarian": {"tested_on": "NCI/ADR-RES ovarian"}, "U251 glioblastoma": {"tested_on": "U251 glioblastoma"}, "HT29 colon": {"tested_on": "HT29 colon"}, "SNB-19 CNS": {"tested_on": "SNB-19 CNS"}, "RXF 393 renal": {"tested_on": "RXF 393 renal"}, "KM12 colon": {"tested_on": "KM12 colon"}, "HL-60(TB) leukemia": {"tested_on": "HL-60(TB) leukemia"}},
  "note": "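GI50: concentration for 50% inhibition of growth. Definition used: TGI = concentration required for complete inhibition of growth.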",
  "data": [
    {"smiles": "COc1cc2c(c(OC)n1)[C@]1(O)[C@H](O)[C@H](CN(C)C)[C@@H](c3ccccc3)[C@]1(c1ccc(C#N)cc1)O2", "values": [
      {"measurement": "TGI", "setting": "OVCAR-5 ovarian", "value": 58, "unit": "nM"},
      {"measurement": "GI50", "setting": "LOX IMVI melanoma", "value": "< 10", "unit": "nM"},
      {"measurement": "TGI", "setting": "LOX IMVI melanoma", "value": 20.5, "unit": "nM"},
      {"measurement": "GI50", "setting": "UACC-257 melanoma", "value": 25.3, "unit": "nM"},
      {"measurement": "TGI", "setting": "UACC-257 melanoma", "value": 420, "unit": "nM"},
      {"measurement": "GI50", "setting": "NCI-H23 lung", "value": "< 10", "unit": "nM"},
      {"measurement": "TGI", "setting": "NCI-H23 lung", "value": 41.2, "unit": "nM"},
      {"measurement": "GI50", "setting": "NCI-H322M lung", "value": 13.9, "unit": "nM"},
      {"measurement": "TGI", "setting": "NCI-H322M lung", "value": 55.7, "unit": "nM"},
      {"measurement": "GI50", "setting": "K-562 leukemia", "value": "< 10", "unit": "nM"},
      {"measurement": "TGI", "setting": "K-562 leukemia", "value": 10700, "unit": "nM"},
      {"measurement": "GI50", "setting": "MOLT-4 leukemia", "value": "< 10", "unit": "nM"},
      {"measurement": "TGI", "setting": "MOLT-4 leukemia", "value": "< 10", "unit": "nM"},
      {"measurement": "GI50", "setting": "SK-MEL-5 melanoma", "value": "< 10", "unit": "nM"},
      {"measurement": "TGI", "setting": "SK-MEL-5 melanoma", "value": 41.4, "unit": "nM"},
      {"measurement": "GI50", "setting": "SK-MEL-2 melanoma", "value": "< 10", "unit": "nM"},
      {"measurement": "TGI", "setting": "SK-MEL-2 melanoma", "value": 41.3, "unit": "nM"},
      {"measurement": "GI50", "setting": "OVCAR-8 ovarian", "value": 20.8, "unit": "nM"},
      {"measurement": "TGI", "setting": "OVCAR-8 ovarian", "value": 10700, "unit": "nM"},
      {"measurement": "GI50", "setting": "SF-268 CNS", "value": 15.7, "unit": "nM"},
      {"measurement": "TGI", "setting": "SF-268 CNS", "value": 175, "unit": "nM"},
      {"measurement": "GI50", "setting": "NCI-H522 lung", "value": "< 10", "unit": "nM"},
      {"measurement": "TGI", "setting": "NCI-H522 lung", "value": 33.7, "unit": "nM"},
      {"measurement": "GI50", "setting": "PC-3 prostate", "value": "< 10", "unit": "nM"},
      {"measurement": "TGI", "setting": "PC-3 prostate", "value": 2260, "unit": "nM"},
      {"measurement": "GI50", "setting": "SK-OV-3 ovarian", "value": "< 10", "unit": "nM"},
      {"measurement": "TGI", "setting": "SK-OV-3 ovarian", "value": 1310, "unit": "nM"},
      {"measurement": "GI50", "setting": "T-47D breast", "value": "< 10", "unit": "nM"},
      {"measurement": "TGI", "setting": "T-47D breast", "value": 53.3, "unit": "nM"},
      {"measurement": "GI50", "setting": "A498 renal", "value": "< 10", "unit": "nM"},
      {"measurement": "TGI", "setting": "A498 renal", "value": 266, "unit": "nM"},
      {"measurement": "GI50", "setting": "HCC-2998 colon", "value": "< 10", "unit": "nM"},
      {"measurement": "TGI", "setting": "HCC-2998 colon", "value": 28.5, "unit": "nM"},
      {"measurement": "GI50", "setting": "SN12C renal", "value": "< 10", "unit": "nM"},
      {"measurement": "TGI", "setting": "SN12C renal", "value": 54.6, "unit": "nM"},
      {"measurement": "GI50", "setting": "OVCAR-3 ovarian", "value": "< 10", "unit": "nM"},
      {"measurement": "TGI", "setting": "OVCAR-3 ovarian", "value": 28.2, "unit": "nM"},
      {"measurement": "GI50", "setting": "UO-31 renal", "value": 21.3, "unit": "nM"},
      {"measurement": "TGI", "setting": "UO-31 renal", "value": 91.6, "unit": "nM"},
      {"measurement": "GI50", "setting": "786-0 renal", "value": 18.6, "unit": "nM"},
      {"measurement": "TGI", "setting": "786-0 renal", "value": 77.6, "unit": "nM"},
      {"measurement": "GI50", "setting": "OVCAR-4 ovarian", "value": "< 10", "unit": "nM"},
      {"measurement": "TGI", "setting": "OVCAR-4 ovarian", "value": 43.4, "unit": "nM"},
      {"measurement": "GI50", "setting": "SK-MEL-28 melanoma", "value": 19.6, "unit": "nM"},
      {"measurement": "TGI", "setting": "SK-MEL-28 melanoma", "value": 67, "unit": "nM"},
      {"measurement": "GI50", "setting": "NCI/ADR-RES ovarian", "value": 138, "unit": "nM"},
      {"measurement": "TGI", "setting": "NCI/ADR-RES ovarian", "value": 3270, "unit": "nM"},
      {"measurement": "GI50", "setting": "U251 glioblastoma", "value": 12.6, "unit": "nM"},
      {"measurement": "TGI", "setting": "U251 glioblastoma", "value": 209, "unit": "nM"},
      {"measurement": "GI50", "setting": "HT29 colon", "value": 22.2, "unit": "nM"},
      {"measurement": "TGI", "setting": "HT29 colon", "value": 15600, "unit": "nM"},
      {"measurement": "GI50", "setting": "SNB-19 CNS", "value": 12.4, "unit": "nM"},
      {"measurement": "TGI", "setting": "SNB-19 CNS", "value": 119, "unit": "nM"},
      {"measurement": "GI50", "setting": "RXF 393 renal", "value": "< 10", "unit": "nM"},
      {"measurement": "TGI", "setting": "RXF 393 renal", "value": 21.8, "unit": "nM"},
      {"measurement": "GI50", "setting": "KM12 colon", "value": "< 10", "unit": "nM"},
      {"measurement": "TGI", "setting": "KM12 colon", "value": 72.2, "unit": "nM"},
      {"measurement": "GI50", "setting": "HL-60(TB) leukemia", "value": "< 10", "unit": "nM"},
      {"measurement": "TGI", "setting": "HL-60(TB) leukemia", "value": "< 10", "unit": "nM"}
    ]}
  ]
}
